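48-hour exposure; five concentrations; linearly interpolated endpoints. The concentration for 50% growth inhibition is given as GI50. TGI: concentration producing complete growth inhibition.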
Experiments:
Assay in all cases: DTP human tumour cell line panel, 48 h
[1] = tested on: HL-60(TB) leukemia
[2] = tested on: DU-145 prostate
[3] = tested on: A498 renal
[4] = tested on: HOP-62 NSCLC
[5] = tested on: M14 melanoma
[6] = tested on: T-47D breast
[7] = tested on: HCT-116 colon
[8] = tested on: SF-268 CNS
[9] = tested on: 786-0 renal
[10] = tested on: RXF-631 renal
[11] = tested on: DMS 273 small cell lung
[12] = tested on: DMS 114 small cell lung

SMILES | TGI [1] [µM] | TGI [2] [µM] | TGI [3] [µM] | TGI [4] [µM] | TGI [5] [µM] | TGI [6] [µM] | TGI [7] [µM] | TGI [8] [µM] | TGI [9] [µM] | GI50 [1] [µM] | GI50 [2] [µM] | GI50 [3] [µM] | GI50 [4] [µM] | GI50 [5] [µM] | GI50 [8] [µM] | GI50 [6] [µM] | GI50 [7] [µM] | TGI [10] [µM] | TGI [11] [µM] | TGI [12] [µM]
OCC1NC(CO)C(O)C1O (stereo not drawn) | > 100 | > 100 | > 100 | > 100 | > 100 | > 100 | > 100 |  |  |  |  |  |  |  |  |  |  |  |  | 
Nc1ccc(C2(c3ccc(N)cc3)C3CC4CC(C3)CC2C4)cc1 | 46.6 |  | 41.3 | 29.3 | 29.9 | 42.8 | 42.1 | 27.3 |  |  |  |  |  |  |  |  |  |  |  | 
O=Nn1c2ccccc2c2ccccc21 | > 100 | > 100 | 75.7 | > 100 | > 100 | > 100 | > 100 | > 100 | > 100 |  |  |  |  |  |  |  |  |  |  | 
CC(C)N(CCNc1nc(C(Cl)(Cl)Cl)nc2cc(Cl)ccc12)C(C)C | 3.6 | 3.76 | 2.66 | 3.12 | 3.19 | 5.08 | 2.66 | 4.44 |  | 1.52 | 1.61 | 1.27 | 1.6 | 1.58 | 1.97 | 2.24 | 1.31 |  |  | 
Cc1ccc(S(=O)(=O)NCCCSCCN)cc1 | > 100 | > 100 | > 100 |  | > 100 | > 100 | > 100 | > 100 |  |  |  |  |  |  |  |  |  |  |  | 
COc1ncnc2c(Cl)c(C(O)c3ccccc3)c(Cl)cc12 (stereo not drawn) | > 100 | > 100 | 53.2 | 32.5 | 89.9 | > 100 | 44.1 | 57.7 |  |  |  |  |  |  |  |  |  |  |  | 
Fc1ccc(C2CC(c3cccc(Nc4ccncc4)c3)=NN2c2ccccc2)cc1 (stereo not drawn) | 4.49 | 3.91 | 6.92 |  | 3.71 | 4.62 | 3.12 | 3.4 |  | 2.08 | 1.98 | 0.446 |  | 1.87 | 1.75 | 2.04 | 1.49 |  |  | 
O=C(Nc1ccc(C(F)(F)F)cc1[N+](=O)[O-])C(=O)Nn1c(=S)[nH]c2ccccc2c1=O | > 100 |  | > 100 | > 100 |  |  | > 100 | > 100 |  |  |  |  |  |  |  |  |  | > 100 | > 100 | > 100
CCOP(=O)(OCC)C(Cc1c[nH]c2ccccc12)C(=O)O (stereo not drawn) | > 100 | > 100 | > 100 | > 100 | > 100 | > 100 | > 100 |  |  |  |  |  |  |  |  |  |  |  |  | 
CC=C/C=C/[C@@H]1O[C@](O)([C@H](CC)C(=O)NC/C=C/C=C(\C)[C@@H](OC)[C@@H](C)[C@@H]2O[C@H](/C=C/C=C/C=C(\C)C(=O)c3c(O)cc[nH]c3=O)[C@H](O)[C@@H]2O)[C@H](O)[C@H](O)C1(C)C | > 100 |  | > 100 | > 100 | > 100 |  |  | > 100 |  |  |  |  |  |  |  |  |  |  |  | 
COc1ccc(/C=C/c2cc(O)cc(OC3OC(CO)C(O)C(O)C3O)c2)cc1O (stereo not drawn) | > 100 | > 100 | > 100 | > 100 | > 100 | > 100 | > 100 | > 100 | > 100 |  |  |  |  |  |  |  |  |  |  | 
COc1ccc(CCn2ccc(C)n2)c(OC)c1 |  | > 100 |  | > 100 | > 100 | > 100 | > 100 | > 100 |  |  |  |  |  |  |  |  |  |  |  | 

Reference: PubChem BioAssay (NCI)
